In article PMC13045254, “Dual Targeting of DNA and EGFR by ZYH005 Induces DNA Damage and Mitotic Catastrophe in Glioblastoma” (MedComm, 2026) one finds Kd data, which are given here for one compound.

As a reminder, the Kd is the free concentration of one partner at which half of the binding sites on the other are occupied at equilibrium, for simple one-to-one binding.

In this experiment the target is T1, epidermal growth factor receptor (EGFR) (Homo sapiens, UniProt P00533).
T1 construct: recombinant EGFR kinase domain
T1 sequence (P00533 712-979 limits assumed): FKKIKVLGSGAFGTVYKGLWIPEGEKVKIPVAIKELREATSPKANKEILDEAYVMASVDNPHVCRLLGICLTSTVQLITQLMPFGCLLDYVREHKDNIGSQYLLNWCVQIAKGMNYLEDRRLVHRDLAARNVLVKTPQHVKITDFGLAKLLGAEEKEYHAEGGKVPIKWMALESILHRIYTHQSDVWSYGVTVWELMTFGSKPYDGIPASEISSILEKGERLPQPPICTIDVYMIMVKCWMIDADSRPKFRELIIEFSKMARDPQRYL
The experiment in a line: SPR with recombinant kinase domain; supported by CETSA, DARTS and LiP-MS. Type of experiment: binding.

For `COc1ccc(CCn2c(=O)c3cc4c(cc3c3ccccc32)OCO4)cc1` [Z5, ZYH005], the Kd was 19.6 µM.
